In patent US20170121293A1, “PROCESS FOR PREPARING A NOVEL CRYSTALLINE FORM OF METSULFURON-METHYL AND USE OF THE SAME” (ROTAM AGROCHEM INTERNATIONAL COMPANY LIMITED, priority 2015, published 2017):
Like-named read-outs stand apart in the source and are kept apart here.

Columns and labels:
[1] = assay type: physicochemical; details: for Concentration measured by HPLC after treatment: pH 7 buffer, test temperature e.g. 20° C.
Protocol: A stock pH 7 buffer solution was prepared by adding aqueous sodium hydroxide solution (0.1 M, 145 mL) to aqueous potassium dihydrogen phosphate solution (0.1 M, 250 mL), and then adding sufficient distilled water to adjust the final volume to 500 mL. At least 1 time and up to about 5 times the amount of metsulfuron-methyl needed for saturation was added to a mixing vessel containing stock buffer solution at the test temperature (e.g., 20° C.). The mixture was magnetically stirred in the dark while being maintained at the test temperature. Samples were periodically removed for analysis. The samples were centrifuged using a high speed, temperature-controlled centrifuge at the test temperature for about 20 minutes at >12000 G to remove suspended particles. An aliquot of each supernatant was taken for analysis. The concentration of metsulfuron-methyl in the supernatant was determined by a high pressure liquid chromatography (HPLC) with a reversed phase chromatography column and UV detection. The method should include development of best-fit calibration curves based on at least three standards using linear regression analysis Samples were successively withdrawn from the mixing vessel and analyzed until three successive samples show little or no variation in concentration. The test is preferably replicated to ensure accuracy.

[2] = Cleanout test (residue in polyethylene bottles extracted with acetonitrile); assay type: physicochemical; details: dispersed in tap water, stood overnight, lower = more effective cleanout
Protocol: The test was conducted by dispersing in water a sample to produce a concentration that is normally used when applying the herbicide: 25% metsulfuron-methyl. The sample was added to tap water (300 mL) in a 400 mL beaker and magnetically stirred for 2 minutes. The mixture was then stirred for 2 minutes, whereupon the resulting dispersion was dispensed in three 100 mL aliquots to 4-oz (118 mL) polyethylene bottles. The bottles were capped, inverted twice and allowed to stand overnight.
After standing overnight, each individual bottle was inverted twice and the liquid contents were then poured out. Tap water (10 mL) was added and the bottle was inverted until all sediment was re-suspended, whereupon the contents were poured out. Tap water (100 mL) was added and the bottle was inverted twice and then allowed to stand undisturbed for 10 minutes. The bottle was inverted twice more and the contents were poured out. Acetonitrile (10 mL) was added to the bottle to extract any remaining material. The acetonitrile solution was analyzed by reversed-phase liquid chromatography with UV detection. The cleanout rating (the concentration of metsulfuron-methyl herbicide in the acetonitrile solution) is reported in % in Table 6 below.

Viscosity when dissolved = assay type: physicochemical
weeds = assay: Activity in controlling weeds; details: in vivo
[3] = OD formulation, original concentration 40%
[4] = SG formulation, original concentration 25%
[5] = WG formulation, original concentration 25%

SMILES | Solubility (in words) [1] | Concentration measured by HPLC after treatment [1, 3] [%] | Concentration measured by HPLC after treatment [1, 4] [%] | Concentration measured by HPLC after treatment [1, 5] [%] | Cleanout rating (concentration of metsulfuron-methyl in the acetonitrile solution) ([2]; OD formulation) [%] | Cleanout rating (concentration of metsulfuron-methyl in the acetonitrile solution) ([2]; SG formulation) [%] | Cleanout rating (concentration of metsulfuron-methyl in the acetonitrile solution) ([2]; WG formulation) [%] | Viscosity (in words) (Viscosity when dissolved; listed as crystalline modification I of metsulfuron-methyl) | Activity in controlling weeds (weeds) | Viscosity (in words) (Viscosity when dissolved; listed as metsulfuron-methyl in amorphous state)
COC(=O)c1ccccc1S(=O)(=O)NC(=O)Nc1nc(C)nc(OC)n1 [Metsulfuron-methyl, crystalline modification I] [methyl 2-(4-methoxy-6-methyl-1,3,5-triazin-2-ylcarbamoylsulfamoyl)benzoate] | significant increase | 35 | 24.9 | 23 | 5 | 0.1 | 2 | significant decrease | active in controlling weeds | –
COC(=O)c1ccccc1S(=O)(=O)NC(=O)Nc1nc(C)nc(OC)n1 [Amorphous metsulfuron-methyl, methyl 2-[[[[(4-methoxy-6-methyl-1,3,5-triazin-2-yl)amino]carbonyl]amino]sulfonyl]benzoate, reference compound] | – | 14 | 15 | 12 | 26 | 10 | 13 | – | – | highly viscous
